Measured values taken from patent US8586632B2, “Use of the irritating principal oleocanthal in olive oil, as well as structurally and functionally similar compounds” (Monell Chemical Senses Center, priority 2007, dated 2013).

Key:
[1] = test system: cultured rat trigeminal neurons; test: Intracellular calcium level in cultured rat trigeminal neurons (ratiometric Fura2 imaging); type: cell-based; parameters: key to TG Neuron Activation: The highest scale (+++) was assigned to the analogs that had approximately the same magnitude of response and excited the same number of neurons as oleocanthal; ++ responses were assigned to analogs that elicited intermediate responses to an intermediated number of cells; The + responses were weak but detectable and were observed in very few cells; No detectable response is indicated by 0; conditions: for TG Neuron Activation: single concentration 5 micromolar, response relative to oleocanthal; for intracellular calcium response in trigeminal neurons (in words): cultured rat trigeminal neurons; for number of trigeminal neurons responding, as % of the response to oleocanthal: 5 micromolar oleocanthal = 100%
Protocol: Activity of synthetic oleocanthal analogs was assessed by measurement of the intracellular calcium level in cultured rat trigeminal neurons. Flavor or taste perception is made up of the sensory experience of three chemical senses: taste, smell, and chemical-induced irritation or pain. This third component is mainly determined by the impact of chemical stimuli that are transmitted to the brain via the trigeminal nerve.
Trigeminal ganglia were harvested from 1-3 day old Sprague-Dawley rat pups. Neurons were dissociated in Hanks Buffered Saline Solution (HBSS) with trypsin (0.0625%) for 15 minutes, collagenase (1 mg/ml) and DNase (0.1 mg/ml) for 45 minutes, and then were separated from myelin/debris using a 15/30/60% Percoll gradient. The neurons were plated on poly-1-lysine/laminin-coated coverslips in modified neurobasal medium supplemented with B27, 100 ng/ml Nerve Growth Factor (NGF) and kept at 37° C., 5% CO2. […] Intracellular calcium was measured ratiometrically using excitation at 340 and 380 nm and emission at 510 nm. Experiments were performed at 31-32° C. Neurons were stimulated by compounds in Ringers solution (pH=7.34) that flowed over the neurons for 15 sec.
Synthetic (−)oleocanthal and related analogs were dissolved in absolute ethanol and then added to Ringer's solution adjusted at pH=7.34 with a final ethanol concentration of less than 0.1%. The octanol-water partition coefficient (Log P), expressing compound lipophilicity, was calculated based on chemical structure with the Interactive Analysis Log P predictor website. In general, the higher the log P number, the greater the lipophilicity, and the greater the tendency of the compound to partition into the lipid phase of the cell membranes.
Oleocanthal activates rat trigeminal neurons; 5 microM of the olive oil irritant elicits a robust intracellular calcium increase in about 25 to about 35% of cultured rat trigeminal neurons (FIG. 6). Therefore, to assess the irritation potency of oleocanthal analogs and in order to avoid human consumption of unnatural compounds, activity was determined by measurement of the intracellular calcium level in cultured rat trigeminal neurons. […] Thus, both aldehyde groups, as well as unsaturation, are required to maintain full activity. […] Analog 11 is of particular interest. Like oleocanthal, analog 11 (or 4-DHPEA-EDA) is a secoiridoid derivative naturally present in extra virgin olive oil. Oleocanthal and 4-DHPEA-EDA formation occurs during olive oil production by enzymatic and chemical degradation of their respective precursors ligstroside and oleuropein, two glucosylated secoiridoids abundantly synthesized in unripe olives (FIG. 9). Oleocanthal and 4-DHPEA-EDA are structurally very similar—the sole difference being a second phenolic hydroxyl group in 4-DHPEA-EDA. […] For the experiment illustrated in FIG. 8, analog 13 (5, 10, 20 and 50 micomolar) was applied on a separate coverslip containing trigeminal neurons and activation was determined. This was followed by application of 5 micromolar oleocanthal to the same four coverslips. For each coverslip, the number of trigeminal neurons responding to oleocanthal was determined and defined as 100%. The number of trigeminal neurons responding to analog 13 corresponded to approximately 6% (5 micromolar analog 13), 25% (10 micromolar analog 13), 45% (20 micromolar analog 13) and 96% (50 micromolar analog 13) of the response to oleocanthal. For each coverslip, 18-20 trigeminal neurons were sensitive to oleocanthal. […] Analog 13 is very close in structure to oleocanthal (Table 2), lacking only a single carbon. […] While not wishing to be bound by any one theory, it is believed that the shorter chain of analog 13 pulls the rigid ring forward creating a steric obstruction to efficacious binding with the receptor.

oral irritation = conditions: reported, Anke et al. 1991; cited from earlier work
throat = test: Throat irritation sensory test of synthetic oleocanthal in corn oil (two-alternative forced-choice); type: in vivo, human; conditions: for correct trials, 2AFC throat irritation: ten subjects
Protocol: Testing was double-blind and each was exposed to three sets of two samples, one of which was added synthesized oleocanthal and the other served as the blank control. The task was to indicated which of the pair was more irritating. […] Importantly, the effect was dose dependent (FIG. 2 open triangles, dashed line). Ten subjects were tested with non-irritating commercial corn oils presented neat and mixed with either synthesized (−)-oleocanthal or the bitter agent sucrose octaacetate (SOA) (Sigma-Aldrich). […] (−)-Oleocanthal was tested at the highest concentration identified in the ten rated oils, 200 μg/ml, and at one half and whole log steps more dilute 63.25 and 20 μg/ml. SOA was added to the corn oil (4×10^−4, 1×10^−4, 5×10^−5 M) to intensity match the irritation of the three levels of (−)-oleocanthal. Subjects participated in two-alternative forced-choice (2AFC) trials (four trials at every concentration for each subject) and in intensity ratings sessions (four ratings per each oil). For the 2AFC trials subjects were presented with two 3.0 ml corn oil samples with matching intensities of SOA and (−)-oleocanthal in ascending order, and were required to sample oils as described above. While blind to stimulus position, subjects were asked two questions on each trial, “Which of the two oils was more irritating in the throat?” and “Which one was more bitter?” At the 20 μg/ml & 5×10^−5 M level most subjects reported on some trials that the same oil was both the more irritating and the more bitter of the two. […] Subjects performed at chance when selecting among two unadulterated corn oils, when the correct choice was randomly assigned prior to testing. […] The other two concentrations were correct 39/40 and 40/40 trials. For the intensity rating trials subjects were presented with all eight oils in ascending order, counterbalanced for stimulus order and asked to rate the throat irritation and bitterness of every oil on a general labeled magnitude scale.

Row | SMILES | TG Neuron Activation [1] | intracellular calcium response in trigeminal neurons (in words) [1] | other results
1 | C/C=C(/C=O)[C@@H](CC=O)CC(=O)OCCc1ccccc1 [Analog 1] | +++ |  | 
2 | C/C=C(/C=O)[C@@H](CC=O)CC(=O)OCCc1ccc(F)cc1 [Analog 2] | +++ |  | 
3 | C/C=C(/C=O)[C@@H](CC=O)CC(=O)OCCc1ccccc1O [Analog 3] | +++ |  | 
4 | C/C=C(/C=O)[C@@H](CC=O)CC(=O)OCCc1cccc(O)c1 [Analog 4] | +++ |  | 
5 | C/C=C1\[C@H](CC(=O)OCCc2ccc(O)cc2)C[C@@H](O)[C@H]1O [Analog 5] | 0 | did not elicit intracellular calcium increase | 
6 | C/C=C(/C=O)[C@@H](CC=O)CC(=O)OC [Analog 6] | ++ |  | 
7 | C/C=C(/C=O)[C@@H](CC=O)CC(=O)OCCCCC [Analog 7] | +++ |  | 
8 | C/C=C(/C=O)[C@@H](CC=O)CC(=O)OCCCc1ccc(O)cc1 [Analog 8] | +++ |  | 
9 | C/C=C(/C=O)[C@@H](CCO)CC(=O)OCCc1ccc(O)cc1 [Analog 9] | + | did not elicit intracellular calcium increase | 
10 | C/C=C(/CO)[C@@H](CCO)CC(=O)OCCc1ccc(O)cc1 [Analog 10] | 0 | did not elicit intracellular calcium increase | 
11 | C/C=C(/C=O)[C@@H](CC=O)CC(=O)OCCc1ccc(O)c(O)c1 [Analog 11, 4-DHPEA-EDA] | +++ |  | oral irritation (in words) (oral irritation): very little oral irritation
12 | CC[C@@H](C=O)[C@@H](CC=O)CC(=O)OCCc1ccc(O)cc1 [Analog 12] | 0 | did not elicit intracellular calcium increase | 
13 | C/C=C(/C=O)[C@@H](CC=O)CC(=O)OCc1ccc(O)cc1 [Analog 13] | + | small responses | number of trigeminal neurons responding, as % of the response to oleocanthal ([1]; 5 micromolar analog 13): approximately 6%; number of trigeminal neurons responding, as % of the response to oleocanthal ([1]; 10 micromolar analog 13): about 25%; number of trigeminal neurons responding, as % of the response to oleocanthal ([1]; 20 micromolar analog 13): ~45%; number of trigeminal neurons responding, as % of the response to oleocanthal ([1]; 50 micromolar analog 13): ~96%; multiple of concentration needed to reach the potency of oleocanthal ([1]; trigeminal neuron stimulation, FIG. 8): approximately 10 times
14 | C/C=C(/C=O)[C@@H](CC=O)CC(=O)OCCc1ccc(O)cc1 [Oleocanthal (−), 2-(4-hydroxyphenyl)ethyl, 4-formyl-3-(2-oxoethyl)-4-hexenoic acid ester] | +++ |  | correct trials, 2AFC throat irritation (throat; 20 μg/ml in corn oil vs intensity-matched SOA): 24 out of 40; correct trials, 2AFC throat irritation (throat; 63.25 μg/ml in corn oil vs intensity-matched SOA): 39/40; correct trials, 2AFC throat irritation (throat; 200 μg/ml in corn oil vs intensity-matched SOA): 40/40; throat irritation (in words) (throat; synthetic compound in corn oil): identical to oleocanthal isolated from premium olive oil; correct identification of the more irritating sample (2AFC) (throat; three evaluators, three presentations each, corn oil, approx. twice the concentration in Falconaro olive oil, vs blank, p<0.01): 9 of 9; concentration near detection threshold levels in corn oil (throat; throat irritation, 2AFC): ~20 µg/mL
